# Values joined by “and” are separate entries in the source; they are usually repeats but may differ in a detail not shown here. Equal values may be shown once.
# Key:
# TMPRSS2 = TMPRSS2 (Homo sapiens, UniProt O15393); assay: biochemical; type: biochemical
# [1] = system: SARS-CoV-2-S pseudotyped virus Omicron BA.2; assay: microbe, parasite or virus in culture; type: cell-based
# human CTSL = target: T1, human CTSL (Homo sapiens, UniProt P07711); assay: FRET enzymatic inhibition assay of CTSL (IC50 measurement); type: biochemical; details: Fig. 5c
# T1 construct: made in house
# T1 sequence (P07711 114-333): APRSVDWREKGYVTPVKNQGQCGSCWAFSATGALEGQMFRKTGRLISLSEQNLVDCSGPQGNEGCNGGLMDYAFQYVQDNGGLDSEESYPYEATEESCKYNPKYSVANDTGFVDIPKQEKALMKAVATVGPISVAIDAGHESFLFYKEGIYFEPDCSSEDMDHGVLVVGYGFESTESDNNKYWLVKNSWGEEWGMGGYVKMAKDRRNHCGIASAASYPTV
# TMPRSS2, sequence (O15393 256-492): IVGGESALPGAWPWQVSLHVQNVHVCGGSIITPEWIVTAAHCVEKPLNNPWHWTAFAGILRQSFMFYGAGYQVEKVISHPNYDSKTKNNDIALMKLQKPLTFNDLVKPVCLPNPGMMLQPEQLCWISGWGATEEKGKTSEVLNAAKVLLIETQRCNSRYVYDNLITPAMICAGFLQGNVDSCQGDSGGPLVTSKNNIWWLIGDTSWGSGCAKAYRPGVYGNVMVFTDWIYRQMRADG
# TMPRSS2, sequence (O15393 other isoform, or with tags, fused parts or gaps): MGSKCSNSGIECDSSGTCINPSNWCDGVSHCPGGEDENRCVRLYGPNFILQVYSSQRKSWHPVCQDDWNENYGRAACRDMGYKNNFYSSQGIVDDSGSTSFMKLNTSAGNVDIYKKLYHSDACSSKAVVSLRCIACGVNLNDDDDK
structure (smiles),measurement,setting,value
NC(N)=Nc1ccc(C(=O)OCCN2CCN(C(=O)N[C@@H](Cc3ccccc3)C(=O)N[C@H](/C=C/S(=O)(=O)c3ccccc3)CCc3ccccc3)CC2)cc1 [212-148],IC50,"TMPRSS2; 0.5 nM TMPRSS2, 10 μM substrate, mean ± SD, four replicates",1380 nM
same,Inhibition: TMPRSS2,"TMPRSS2; 212-148 15.2588 nM, Fig. 5b",5.04% and 4.06% and 3.14%
same,inhibition at 0.0152588 µM,"TMPRSS2; 212-148 15.2588 nM, Fig. 5b",3.01%
same,Inhibition: TMPRSS2,"TMPRSS2; 212-148 30.5176 nM, Fig. 5b",3.05% and 3.16% and 4.84%
same,inhibition at 0.0305176 µM,"TMPRSS2; 212-148 30.5176 nM, Fig. 5b",4.19%
same,Inhibition: TMPRSS2,"TMPRSS2; 212-148 61.0352 nM, Fig. 5b",6.85% and 6.15% and 3.83%
same,inhibition at 0.0610352 µM,"TMPRSS2; 212-148 61.0352 nM, Fig. 5b",6.56%
same,Inhibition: TMPRSS2,"TMPRSS2; 212-148 122.07 nM, Fig. 5b",7.87% and 8.22% and 8.32%
same,inhibition at 0.12207 µM,"TMPRSS2; 212-148 122.07 nM, Fig. 5b",8.2%
same,Inhibition: TMPRSS2,"TMPRSS2; 212-148 244.141 nM, Fig. 5b",13.88% and 12.56% and 13.21%
same,inhibition at 0.244141 µM,"TMPRSS2; 212-148 244.141 nM, Fig. 5b",13.6%
same,Inhibition: TMPRSS2,"TMPRSS2; 212-148 488.281 nM, Fig. 5b",22.52% and 22.28% and 23.91%
same,inhibition at 0.488281 µM,"TMPRSS2; 212-148 488.281 nM, Fig. 5b",23.3%
same,Inhibition: TMPRSS2,"TMPRSS2; 212-148 976.562 nM, Fig. 5b",40.08% and 39.01% and 40.36%
same,inhibition at 0.976562 µM,"TMPRSS2; 212-148 976.562 nM, Fig. 5b",39.7%
same,Inhibition: TMPRSS2,"TMPRSS2; 212-148 1953.12 nM, Fig. 5b",63.03% and 61.74% and 62.43%
same,inhibition at 1.95312 µM,"TMPRSS2; 212-148 1953.12 nM, Fig. 5b",61.1%
same,Inhibition: TMPRSS2,"TMPRSS2; 212-148 3906.25 nM, Fig. 5b",83.44% and 83.94% and 85.49%
same,inhibition at 3.90625 µM,"TMPRSS2; 212-148 3906.25 nM, Fig. 5b",83.6%
same,Inhibition: TMPRSS2,"TMPRSS2; 212-148 7812.5 nM, Fig. 5b",95.50% and 95.52% and 96.33%
same,inhibition at 7.8125 µM,"TMPRSS2; 212-148 7812.5 nM, Fig. 5b",94.8%
same,Inhibition: TMPRSS2,"TMPRSS2; 212-148 15625 nM, Fig. 5b",98.35% and 96.17% and 99.57%
same,inhibition at 15.625 µM,"TMPRSS2; 212-148 15625 nM, Fig. 5b",97.8%
same,Inhibition: TMPRSS2,"TMPRSS2; 212-148 31250 nM, Fig. 5b",98.24% and 98.70% and 100.24%
same,inhibition at 31.25 µM,"TMPRSS2; 212-148 31250 nM, Fig. 5b",97.8%
same,Inhibition: TMPRSS2,"TMPRSS2; 212-148 62500 nM, Fig. 5b",98.19% and 99.09% and 100.93%
same,inhibition at 62.5 µM,"TMPRSS2; 212-148 62500 nM, Fig. 5b",98%
same,Inhibition: TMPRSS2,"TMPRSS2; 212-148 125000 nM, Fig. 5b",98.93% and 99.03% and 99.02%
same,inhibition at 125 µM,"TMPRSS2; 212-148 125000 nM, Fig. 5b",98.3%
same,Inhibition: TMPRSS2,"TMPRSS2; 212-148 250000 nM, Fig. 5b",99.15% and 99.14% and 99.60%
same,inhibition at 250 µM,"TMPRSS2; 212-148 250000 nM, Fig. 5b",98.1%
same,Inhibition: TMPRSS2,"TMPRSS2; 212-148 500000 nM, Fig. 5b",100.68% and 99.05% and 100.75%
same,inhibition at 500 µM,"TMPRSS2; 212-148 500000 nM, Fig. 5b",100%
same,Inhibition: TMPRSS2,"TMPRSS2; 212-148 1000000 nM, Fig. 5b",100.30% and 98.80% and 100.85%
same,inhibition at 1000 µM,"TMPRSS2; 212-148 1000000 nM, Fig. 5b",99.8%
same,Inhibition: TMPRSS2,"TMPRSS2; 212-148 2000000 nM, Fig. 5b",100.85% and 100.05% and 100.27%
same,inhibition at 2000 µM,"TMPRSS2; 212-148 2000000 nM, Fig. 5b",99%
same,Inhibition: BA.2/Huh-7,"[1]; 212-148 0.00128 μM, Fig. 5d",25.89% and 19.49%
same,Inhibition: BA.2/Huh-7,"[1]; 212-148 0.8 μM, Fig. 5d",91.14% and 94.17%
same,Inhibition: BA.2/Huh-7,"[1]; 212-148 4 μM, Fig. 5d",97.31% and 97.73%
same,Inhibition: BA.2/Huh-7,"[1]; 212-148 20 μM, Fig. 5d",84.53% and 89.27%
same,inhibition at 0.00128 µM,"[1]; Severe acute respiratory syndrome coronavirus 2, Huh-7, 120 h, 212-148 0.00128 μM, Fig. 5d",38.3%
same,inhibition at 0.8 µM,"[1]; Severe acute respiratory syndrome coronavirus 2, Huh-7, 120 h, 212-148 0.8 μM, Fig. 5d",99.7%
same,inhibition at 4 µM,"[1]; Severe acute respiratory syndrome coronavirus 2, Huh-7, 120 h, 212-148 4 μM, Fig. 5d",83.7%
same,inhibition at 20 µM,"[1]; Severe acute respiratory syndrome coronavirus 2, Huh-7, 120 h, 212-148 20 μM, Fig. 5d",97.9%
same,EC50,"[1]; Severe acute respiratory syndrome coronavirus 2, Huh-7, read-out: Antiviral efficacy EC50 (95% CI)",5.7 nM
same,content remaining (LC-MS),"after two days in the medium that contains FBS, 125 μM",more than 50%
same,stability compared (in words),same conditions as cell assay media,more stable than nafamostat
same,Inhibition: CTSL,human CTSL; 212-148 0.0152588 nM,2.91% and -0.21% and -1.28% and 1.99%
same,Inhibition: CTSL,human CTSL; 212-148 0.0305176 nM,3.33% and -0.12% and 1.43% and -2.77%
same,Inhibition: CTSL,human CTSL; 212-148 0.0610352 nM,-0.57% and 0.90% and 3.39% and -2.15%
same,Inhibition: CTSL,human CTSL; 212-148 0.12207 nM,9.01% and 2.36% and 0.90% and 3.32%
same,Inhibition: CTSL,human CTSL; 212-148 0.244141 nM,8.36% and 6.61% and 10.35%
same,inhibition at 0.000244141 µM,human CTSL; 212-148 0.244141 nM,6.2%
same,Inhibition: CTSL,human CTSL; 212-148 0.488281 nM,11.98% and 10.08% and 8.64%
same,inhibition at 0.000488281 µM,human CTSL; 212-148 0.488281 nM,11.8%
same,Inhibition: CTSL,human CTSL; 212-148 0.976562 nM,27.34% and 25.99% and 25.66%
same,inhibition at 0.000976562 µM,human CTSL; 212-148 0.976562 nM,23.1%
same,Inhibition: CTSL,human CTSL; 212-148 1.95312 nM,44.61% and 46.51% and 45.72%
same,inhibition at 0.00195312 µM,human CTSL; 212-148 1.95312 nM,48%
same,Inhibition: CTSL,human CTSL; 212-148 3.90625 nM,71.05% and 70.57% and 71.92%
same,inhibition at 0.00390625 µM,human CTSL; 212-148 3.90625 nM,73.5%
same,Inhibition: CTSL,human CTSL; 212-148 7.8125 nM,92.07% and 92.09% and 91.52%
same,inhibition at 0.0078125 µM,human CTSL; 212-148 7.8125 nM,91.9%
same,Inhibition: CTSL,human CTSL; 212-148 15.625 nM,98.41% and 99.33% and 98.88%
same,inhibition at 0.015625 µM,human CTSL; 212-148 15.625 nM,98.4%
same,Inhibition: CTSL,human CTSL; 212-148 31.25 nM,100.04% and 99.69% and 99.78%
same,inhibition at 0.03125 µM,human CTSL; 212-148 31.25 nM,99.8%
same,Inhibition: CTSL,human CTSL; 212-148 62.5 nM,100.21% and 99.82% and 99.78%

# From publication PMC10663540, “Structure-based discovery of dual pathway inhibitors for SARS-CoV-2 entry” (Nature Communications, 2023)
